According to article PMC3648463, “Common Interactions between S100A4 and S100A9 Defined by a Novel Chemical Probe” (PLoS ONE, 2013):

What was measured:
S100A9 = biological target: T1, S100A9 (Homo sapiens, UniProt P06702); assay: SPR direct binding to amine-coupled S100A9; SPR inhibition of S100A9 binding to immobilized RAGE (IC50 […]) and TLR4 ([…])
T1 construct: recombinant human S100A9 (produced in E. coli)
T1 sequence (P06702 1-114): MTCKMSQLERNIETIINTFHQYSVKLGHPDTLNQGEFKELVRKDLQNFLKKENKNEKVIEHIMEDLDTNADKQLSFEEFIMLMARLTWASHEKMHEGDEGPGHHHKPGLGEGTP

S100A4 = biological target: T2, S100A4 (Homo sapiens, UniProt P26447); assay: SPR direct binding to amine-coupled S100A4; SPR inhibition of S100A4 binding to immobilized RAGE (IC50 […], Figure 5C)
T2 construct: human S100A4 (R&D Systems)
T2 sequence (P26447 2-101): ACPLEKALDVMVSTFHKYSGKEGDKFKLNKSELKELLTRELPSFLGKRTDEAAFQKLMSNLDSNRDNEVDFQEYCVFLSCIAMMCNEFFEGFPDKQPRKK

How did the IC50 (S100A9) turn out when `O=C(Nc1cc(Cl)cc(Cl)c1O)c1c(O)c(Cl)cc(Cl)c1Cl` [OX, Oxyclozanide] was run?
The IC50 was ~1300 nM.

What about the IC50 (S100A4) of the same compound?
Its IC50 is 52 µM.
